Results reported in ChEMBL document CHEMBL4257522, “Synthesis and preliminary anti-inflammatory and anti-bacterial evaluation of some diflunisal aza-analogs” (Medchemcomm, 2018).

Legend:
[1] = test system: Streptococcus pyogenes; assay: Toxicity in Streptococcus pyogenes ATCC 14289 up to 32 uM measured after 16 hrs; format: organism-based
[2] = test system: Streptococcus pyogenes; assay: Potentiation of erythromycin-induced antibacterial activity against Streptococcus pyogenes ATCC 14289 assessed as minimum modulatory concentration up to 32 uM measured after 16 hrs in presence of MIC/4 erythromycin; format: functional; conditions: ATCC 14289, 16 h, read-out: MEC
[3] = test system: Streptococcus pyogenes; assay: Potentiation of ciprofloxacin-induced antibacterial activity against Streptococcus pyogenes ATCC 14289 assessed as minimum modulatory concentration up to 32 uM measured after 16 hrs in presence of MIC/4 ciprofloxacin; format: functional; conditions: ATCC 14289, 16 h, read-out: MEC
[4] = test system: Escherichia coli; assay: Potentiation of tetracycline-induced antibacterial activity against Escherichia coli ATCC 43894 assessed as minimum modulatory concentration up to 32 uM measured after 16 hrs in presence of MIC/4 tetracycline; format: functional; conditions: ATCC 43894, 16 h, read-out: MEC
[5] = test system: Pseudomonas aeruginosa; assay: Potentiation of methicillin-induced antibacterial activity against Pseudomonas aeruginosa ATCC BAA-2108 assessed as minimum modulatory concentration up to 32 uM measured after 16 hrs in presence of MIC/4 methicillin; format: functional; conditions: ATCC BAA-2108, 16 h, read-out: MEC
[6] = test system: Streptococcus pyogenes; assay: Potentiation of tetracycline-induced antibacterial activity against Streptococcus pyogenes ATCC 14289 assessed as minimum modulatory concentration up to 32 uM measured after 16 hrs in presence of MIC/4 tetracycline; format: functional; conditions: ATCC 14289, 16 h, read-out: MEC
[7] = test system: Escherichia coli; assay: Potentiation of erythromycin-induced antibacterial activity against Escherichia coli ATCC 43894 assessed as minimum modulatory concentration up to 32 uM measured after 16 hrs in presence of MIC/4 erythromycin; format: functional; conditions: ATCC 43894, 16 h, read-out: MEC
[8] = test system: Pseudomonas aeruginosa; assay: Potentiation of ciprofloxacin-induced antibacterial activity against Pseudomonas aeruginosa ATCC BAA-2108 assessed as minimum modulatory concentration up to 32 uM measured after 16 hrs in presence of MIC/4 ciprofloxacin; format: functional; conditions: ATCC BAA-2108, 16 h, read-out: MEC
[9] = test system: Macrophage cell line; assay: Induction of IL-8 production in human PBMC-differentiated macrophages after 24 hrs by ELISA; format: cell-based
[10] = test system: Escherichia coli; assay: Toxicity in Escherichia coli ATCC 43894 up to 32 uM measured after 16 hrs; format: organism-based
[11] = test system: Klebsiella pneumoniae; assay: Potentiation of tetracycline-induced antibacterial activity against Klebsiella pneumoniae ATCC 13883 assessed as minimum modulatory concentration up to 32 uM measured after 16 hrs in presence of MIC/4 tetracycline; format: functional; conditions: ATCC 13883, 16 h, read-out: MEC
[12] = test system: Enterococcus faecium; assay: Potentiation of geneticin-induced antibacterial activity against Enterococcus faecium ATCC 700221 assessed as minimum modulatory concentration up to 32 uM measured after 16 hrs in presence of MIC/4 geneticin; format: functional; conditions: ATCC 700221, 16 h, read-out: MEC
[13] = test system: Enterococcus faecium; assay: Toxicity in Enterococcus faecium ATCC 700221 up to 32 uM measured after 16 hrs; format: organism-based; conditions: in vitro
[14] = test system: Macrophage cell line; assay: Cytotoxicity against human PBMC-differentiated macrophages treated for 24 hrs followed by compound washout and measured after 48 hrs by MTT assay; format: cell-based
[15] = test system: Enterococcus faecium; assay: Potentiation of tetracycline-induced antibacterial activity against Enterococcus faecium ATCC 700221 assessed as minimum modulatory concentration up to 32 uM measured after 16 hrs in presence of MIC/4 tetracycline; format: functional; conditions: ATCC 700221, 16 h, read-out: MEC
[16] = test system: Klebsiella pneumoniae; assay: Potentiation of geneticin-induced antibacterial activity against Klebsiella pneumoniae ATCC 13883 assessed as minimum modulatory concentration up to 32 uM measured after 16 hrs in presence of MIC/4 geneticin; format: functional; conditions: ATCC 13883, 16 h, read-out: MEC
[17] = test system: Klebsiella pneumoniae; assay: Potentiation of ciprofloxacin-induced antibacterial activity against Klebsiella pneumoniae ATCC 13883 assessed as minimum modulatory concentration up to 32 uM measured after 16 hrs in presence of MIC/4 ciprofloxacin; format: functional; conditions: ATCC 13883, 16 h, read-out: MEC
[18] = test system: Pseudomonas aeruginosa; assay: Potentiation of erythromycin-induced antibacterial activity against Pseudomonas aeruginosa ATCC BAA-2108 assessed as minimum modulatory concentration up to 32 uM measured after 16 hrs in presence of MIC/4 erythromycin; format: functional; conditions: ATCC BAA-2108, 16 h, read-out: MEC
[19] = test system: Escherichia coli; assay: Potentiation of ciprofloxacin-induced antibacterial activity against Escherichia coli ATCC 43894 assessed as minimum modulatory concentration up to 32 uM measured after 16 hrs in presence of MIC/4 ciprofloxacin; format: functional; conditions: ATCC 43894, 16 h, read-out: MEC
[20] = test system: Enterococcus faecium; assay: Potentiation of erythromycin-induced antibacterial activity against Enterococcus faecium ATCC 700221 assessed as minimum modulatory concentration up to 32 uM measured after 16 hrs in presence of MIC/4 erythromycin; format: functional; conditions: ATCC 700221, 16 h, read-out: MEC
[21] = test system: Macrophage cell line; assay: Induction of prostaglandin production in human PBMC-differentiated macrophages after 24 hrs by ELISA; format: cell-based
[22] = test system: Staphylococcus aureus; assay: Potentiation of ciprofloxacin-induced antibacterial activity against Staphylococcus aureus ATCC 33592 assessed as minimum modulatory concentration up to 32 uM measured after 16 hrs in presence of MIC/4 ciprofloxacin; format: functional; conditions: ATCC 33592, 16 h, read-out: MEC
[23] = test system: Staphylococcus aureus; assay: Toxicity in Staphylococcus aureus ATCC 33592 up to 32 uM measured after 16 hrs; format: organism-based
[24] = test system: Macrophage cell line; assay: Induction of IL-1beta production in human PBMC-differentiated macrophages after 24 hrs by ELISA; format: cell-based
[25] = test system: Pseudomonas aeruginosa; assay: Potentiation of tetracycline-induced antibacterial activity against Pseudomonas aeruginosa ATCC BAA-2108 assessed as minimum modulatory concentration up to 32 uM measured after 16 hrs in presence of MIC/4 tetracycline; format: functional; conditions: ATCC BAA-2108, 16 h, read-out: MEC
[26] = test system: Staphylococcus aureus; assay: Potentiation of tetracycline-induced antibacterial activity against Staphylococcus aureus ATCC 33592 assessed as minimum modulatory concentration up to 32 uM measured after 16 hrs in presence of MIC/4 tetracycline; format: functional; conditions: ATCC 33592, 16 h, read-out: MEC
[27] = test system: Staphylococcus aureus; assay: Potentiation of erythromycin-induced antibacterial activity against Staphylococcus aureus ATCC 33592 assessed as minimum modulatory concentration up to 32 uM measured after 16 hrs in presence of MIC/4 erythromycin; format: functional; conditions: ATCC 33592, 16 h, read-out: MEC
[28] = test system: Streptococcus pyogenes; assay: Potentiation of geneticin-induced antibacterial activity against Streptococcus pyogenes ATCC 14289 assessed as minimum modulatory concentration up to 32 uM measured after 16 hrs in presence of MIC/4 geneticin; format: functional; conditions: ATCC 14289, 16 h, read-out: MEC
[29] = test system: Enterococcus faecium; assay: Potentiation of methicillin-induced antibacterial activity against Enterococcus faecium ATCC 700221 assessed as minimum modulatory concentration up to 32 uM measured after 16 hrs in presence of MIC/4 methicillin; format: functional; conditions: ATCC 700221, 16 h, read-out: MEC
[30] = test system: Klebsiella pneumoniae; assay: Toxicity in Klebsiella pneumoniae ATCC 13883 up to 32 uM measured after 16 hrs; format: organism-based
[31] = test system: Streptococcus pyogenes; assay: Potentiation of methicillin-induced antibacterial activity against Streptococcus pyogenes ATCC 14289 assessed as minimum modulatory concentration up to 32 uM measured after 16 hrs in presence of MIC/4 methicillin; format: functional; conditions: ATCC 14289, 16 h, read-out: MEC
[32] = test system: Staphylococcus aureus; assay: Potentiation of geneticin-induced antibacterial activity against Staphylococcus aureus ATCC 33592 assessed as minimum modulatory concentration up to 32 uM measured after 16 hrs in presence of MIC/4 geneticin; format: functional; conditions: ATCC 33592, 16 h, read-out: MEC
[33] = test system: Staphylococcus aureus; assay: Potentiation of methicillin-induced antibacterial activity against Staphylococcus aureus ATCC 33592 assessed as minimum modulatory concentration up to 32 uM measured after 16 hrs in presence of MIC/4 methicillin; format: functional; conditions: ATCC 33592, 16 h, read-out: MEC

For `O=C(O)c1cc(-c2ccc(F)cc2F)ccc1O` [DIFLUNISAL], the Activity [1] was “Non-Toxic”, the minimal effective concentration [2] was > 32 µM and the minimal effective concentration [3] was > 32 µM. For the same compound, the minimal effective concentration [4] was > 32 µM, the minimal effective concentration [5] was > 32 µM and the minimal effective concentration [6] was > 32 µM. For the same compound, the minimal effective concentration [7] was > 32 µM, the minimal effective concentration [8] was > 32 µM and the Activity [9] was “Non-Toxic”. For the same compound, the Activity [10] was “Non-Toxic”, the minimal effective concentration [11] was > 32 µM and the minimal effective concentration [12] was > 32 µM. The Activity [13] was “Non-Toxic”, the IC50 [14] was 53 µM and the minimal effective concentration [15] was > 32 µM. For the same compound, the minimal effective concentration [16] was > 32 µM, the minimal effective concentration [17] was > 32 µM and the minimal effective concentration [18] was > 32 µM. For the same compound, the minimal effective concentration [19] was > 32 µM, the minimal effective concentration [20] was > 32 µM and the Activity [21] was “Non-Toxic”. The minimal effective concentration [22] was > 32 µM, the Activity [23] was “Non-Toxic” and the Activity [24] was “Non-Toxic”. For the same compound, the minimal effective concentration [25] was > 32 µM, the minimal effective concentration [26] was > 32 µM and the minimal effective concentration [27] was > 32 µM. The minimal effective concentration [28] was > 32 µM, the minimal effective concentration [29] was 16 µM and the Activity [30] was “Non-Toxic”. For the same compound, the minimal effective concentration [31] was 16 µM, the minimal effective concentration [32] was > 32 µM and the minimal effective concentration [33] was 8 µM.
